According to patent US8299077B2 (Roche Palo Alto LLC, priority 2009, dated 2012):

These compounds were tested on B cell receptor-mediated activation of B cells in human blood (CD69 expression) (assay: Inhibition of B cell activation in whole blood measured by CD69 expression). Details: anti-IgM stimulation, 20 h, 50% decrease of CD69-positive cells that are also CD20-positive.
Format: cell-based
Procedure: Inhibition of B Cell Activation in Whole Blood Measured by CD69 Expression
A procedure to test the ability of Btk inhibitors to suppress B cell receptor-mediated activation of B cells in human blood is as follows:
Human whole blood (HWB) is obtained from healthy volunteers, with the following restrictions: 24 hr drug-free, non-smokers. Blood is collected by venipuncture into Vacutainer tubes anticoagulated with sodium heparin. Test compounds are diluted to ten times the desired starting drug concentration in PBS (20×), followed by three-fold serial dilutions in 10% DMSO in PBS to produce a nine point dose-response curve. 5.5 μl of each compound dilution is added in duplicate to a 2 ml 96-well V bottom plate (Analytical Sales and Services, #59623-23); 5.5 μl of 10% DMSO in PBS is added to control and no-stimulus wells. HWB (100 μl) is added to each well, and after mixing the plates are incubated at 37 C, 5% CO2, 100% humidity for 30 minutes. Goat F(ab′)2 anti-human IgM (Southern Biotech, #2022-14) (10 μl of a 500 μg/ml solution, 50 μg/ml final concentration) is added to each well (except the no-stimulus wells) with mixing and the plates are incubated for an additional 20 hours.
At the end of the 20 hour incubation, samples are incubated with florescent-probe-labeled anti-bodies (15 μl PE Mouse anti-Human CD20, BD Pharmingen, #555623, and/or 20 ul APC Mouse anti-Human CD69, BD Pharmingen #555533) for 30 minutes, at 37 C, 5% CO2, 100% humidity. Included are induced control, unstained and single stains for compensation adjustments and initial voltage settings. Samples are then lysed with 1 ml of 1× Pharmingen Lyse Buffer (BD Pharmingen #555899), and plates are centrifuged at 1800 rpm for 5 minutes. Supernatants are removed via suction and the remaining pellets are lysed again with another 1 ml of 1× Pharmingen Lyse Buffer, and plates are spun down as before. Supernatants are aspirated and remaining pellets are washed in FACs buffer (PBS+1% FBS). After a final spin, the supernantants are removed and pellets are resuspended in 180 μl of FACs buffer. Samples are transferred to a 96 well plate suitable to be run on the HTS 96 well system on the BD LSR II flow cytometer.
Using appropriate excitation and emission wavelengths for the fluorophores used, data are acquired and percent positive cell values are obtained using Cell Quest Software. Results are initially analyzed by FACS analysis software (Flow Jo). […] The IC50 values are calculated using XLfit software version 3, equation 201.

| Compound | IC50 |
| --- | --- |
| CNC(=O)C(C)(C)c1ccc(Nc2cc(-c3cccc(-n4ncc5cc(C(C)(C)C)cc(F)c5c4=O)c3CO)cn(C)c2=O)nc1 [Example I-32, 2-(6-{5-[3-(6-tert-Butyl-8-fluoro-1-oxo-1H-phthalazin-2-yl)-2-hydroxymethyl-phenyl]-1-methyl-2-oxo-1,2-dihydro-pyridin-3-ylamino}-pyridin-3-yl)-N-methyl-isobutyramide] | 34 nM |
| Cn1cc(-c2cccc(-n3ccc4cc(C5CC5)cc(F)c4c3=O)c2CO)cc(Nc2ccc(N3CCC(C)(O)CC3)cn2)c1=O [Example I-57, 6-Cyclopropyl-8-fluoro-2-{2-hydroxymethyl-3-[5-(4-hydroxy-4-methyl-3,4,5,6-tetrahydro-2H-[1,3′]bipyridinyl-6′-ylamino)-1-methyl-6-oxo-1,6-dihydro-pyridin-3-yl]-phenyl}-2H-isoquinolin-1-one] | 18 nM |
| Cn1cc(-c2cccc(-n3ncc4cc(C(C)(C)C)cc(F)c4c3=O)c2CO)cc(Nc2ccc(OCCO)cn2)c1=O [Example I-19] | 14 nM |
| COCCNCc1ccc(Nc2cc(-c3cccc(-n4ccc5cc(C6CC6)cc(F)c5c4=O)c3CO)cn(C)c2=O)nc1 [Example I-75, 6-Cyclopropyl-8-fluoro-2-[2-hydroxymethyl-3-(5-{5-[(2-methoxy-ethylamino)-methyl]-pyridin-2-ylamino}-1-methyl-6-oxo-1,6-dihydro-pyridin-3-yl)-phenyl]-2H-isoquinolin-1-one] | 37 nM |
| CC(C)NCc1ccc(Nc2cc(-c3cccc(-n4ncc5cc(C(C)(C)C)cc(F)c5c4=O)c3CO)cn(C)c2=O)nc1 [Example I-43, 6-tert-Butyl-8-fluoro-2-(2-hydroxymethyl-3-{5-[5-(isopropylamino-methyl)-pyridin-2-ylamino]-1-methyl-6-oxo-1,6-dihydro-pyridin-3-yl}-phenyl)-2H-phthalazin-1-one] | 15 nM |
| CC1CCN=C(Nc2cc(-c3cccc(-n4ncc5cc(C(C)(C)C)cc(F)c5c4=O)c3CO)cn(C)c2=O)O1 (stereo not drawn) [Example I-49, 6-tert-Butyl-8-fluoro-2-{2-hydroxymethyl-3-[1-methyl-5-(6-methyl-5,6-dihydro-4H-[1,3]oxazin-2-ylamino)-6-oxo-1,6-dihydro-pyridin-3-yl]-phenyl}-2H-phthalazin-1-one] | 3130 nM |
| CCn1ccc(Nc2cc(-c3cccc(-n4ncc5cc(C(C)(C)C)cc(F)c5c4=O)c3CO)cn(C)c2=O)nc1=O [Example I-37, 6-tert-Butyl-2-{3-[5-(1-ethyl-2-oxo-1,2-dihydro-pyrimidin-4-ylamino)-1-methyl-6-oxo-1,6-dihydro-pyridin-3-yl]-2-hydroxymethyl-phenyl}-8-fluoro-2H-phthalazin-1-one] | 219 nM |
| COCCNCc1ccc(Nc2cc(-c3cccc(-n4ncc5cc(C(C)(C)C)cc(F)c5c4=O)c3CO)cn(C)c2=O)nc1 [Example I-39, 6-tert-Butyl-8-fluoro-2-[2-hydroxymethyl-3-(5-{5-[(2-methoxy-ethylamino)-methyl]-pyridin-2-ylamino}-1-methyl-6-oxo-1,6-dihydro-pyridin-3-yl)-phenyl]-2H-phthalazin-1-one] | 8 nM |
| CCn1cc(Nc2nc(-c3cccc(-n4ccc5cc(C(C)(C)O)cc(F)c5c4=O)c3CO)cn(C)c2=O)cn1 [Example I-81, 2-{3-[6-(1-Ethyl-1H-pyrazol-4-ylamino)-4-methyl-5-oxo-4,5-dihydro-pyrazin-2-yl]-2-hydroxymethyl-phenyl}-8-fluoro-6-(1-hydroxy-1-methyl-ethyl)-2H-isoquinolin-1-one] | 13 nM |
| Cn1cc(-c2cccc(-n3ncc4cc(C(C)(C)C)cc(F)c4c3=O)c2CO)cc(NC2=NCCO2)c1=O [Example I-40, 6-tert-Butyl-2-{3-[5-(4,5-dihydro-oxazol-2-ylamino)-1-methyl-6-oxo-1,6-dihydro-pyridin-3-yl]-2-hydroxymethyl-phenyl}-8-fluoro-2H-phthalazin-1-one] | 824 nM |
| CCC(O)(CC)c1cc(F)c2c(=O)n(-c3cccc(-c4cc(Nc5ccc(N6CCC(C)(O)CC6)cn5)c(=O)n(C)c4)c3CO)ccc2c1 [Example I-64, 6-(1-Ethyl-1-hydroxy-propyl)-8-fluoro-2-{2-hydroxymethyl-3-[5-(4-hydroxy-4-methyl-3,4,5,6-tetrahydro-2H-[1,3′]bipyridinyl-6′-ylamino)-1-methyl-6-oxo-1,6-dihydro-pyridin-3-yl]-phenyl}-2H-isoquinolin-1-one] | 27 nM |
| CN(C)C(=O)C(C)(C)c1ccc(Nc2cc(-c3cccc(-n4ncc5cc(C(C)(C)C)cc(F)c5c4=O)c3CO)cn(C)c2=O)nc1 [Example I-22, 2-(6-{5-[3-(6-tert-Butyl-8-fluoro-1-oxo-1H-phthalazin-2-yl)-2-hydroxymethyl-phenyl]-1-methyl-2-oxo-1,2-dihydro-pyridin-3-ylamino}-pyridin-3-yl)-N,N-dimethyl-isobutyramide] | 14 nM |
| Cn1cc(-c2cccc(N3CCc4cc(C5CC5)cc(C#N)c4C3=O)c2CO)cc(Nc2ccc(S(C)(=O)=O)cn2)c1=O [Example I-13, 6-Cyclopropyl-2-{2-hydroxymethyl-3-[5-(5-methanesulfonyl-pyridin-2-ylamino)-1-methyl-6-oxo-1,6-dihydro-pyridin-3-yl]-phenyl}-1-oxo-1,2,3,4-tetrahydro-isoquinoline-8-carbonitrile] | 4040 nM |
| Cn1cc(-c2cccc(-n3ccc4cc(C5CC5)cc(F)c4c3=O)c2CO)cc(Nc2ccc(C(C)(C)N)cn2)c1=O [Example I-76, 2-(3-{5-[5-(1-Amino-1-methyl-ethyl)-pyridin-2-ylamino]-1-methyl-6-oxo-1,6-dihydro-pyridin-3-yl}-2-hydroxymethyl-phenyl)-6-cyclopropyl-8-fluoro-2H-isoquinolin-1-one] | 40 nM |

More lines, in order of falling IC50, values ahead:

| IC50 | Compound |
| --- | --- |
| 1080 nM | CCNC(=O)Nc1cc(-c2cccc(N3CCc4cc(C(C)(C)C#N)cc(F)c4C3=O)c2CO)cn(C)c1=O [Example I-5, 1-(5-{3-[6-(Cyano-dimethyl-methyl)-8-fluoro-1-oxo-3,4-dihydro-1H-isoquinolin-2-yl]-2-hydroxymethyl-phenyl}-1-methyl-2-oxo-1,2-dihydro-pyridin-3-yl)-3-ethyl-urea] |
| 47 nM | CC(=O)NC(C)(C)c1ccc(Nc2cc(-c3cccc(-n4ncc5cc(C(C)(C)C)cc(F)c5c4=O)c3CO)cn(C)c2=O)nc1 [Example I-48, N-[1-(6-{5-[3-(6-tert-Butyl-8-fluoro-1-oxo-1H-phthalazin-2-yl)-2-hydroxymethyl-phenyl]-1-methyl-2-oxo-1,2-dihydro-pyridin-3-ylamino}-pyridin-3-yl)-1-methyl-ethyl]-acetamide] |
| 43 nM | CCN1CCN(c2ccc(Nc3cc(-c4cccc(N5CCc6cc(C7CC7)cc(F)c6C5=O)c4CO)cn(C)c3=O)nc2)CC1 [Example I-12, 6-Cyclopropyl-2-(3-{5-[5-(4-ethyl-piperazin-1-yl)-pyridin-2-ylamino]-1-methyl-6-oxo-1,6-dihydro-pyridin-3-yl}-2-hydroxymethyl-phenyl)-8-fluoro-3,4-dihydro-2H-isoquinolin-1-one] |
| 29 nM | CC(O)c1ccc(Nc2cc(-c3cccc(-n4ccc5cc(C6CC6)cc(F)c5c4=O)c3CO)cn(C)c2=O)nc1 (stereo not drawn) [Example I-74, 6-Cyclopropyl-8-fluoro-2-(3-{5-[5-(1-hydroxy-ethyl)-pyridin-2-ylamino]-1-methyl-6-oxo-1,6-dihydro-pyridin-3-yl}-2-hydroxymethyl-phenyl)-2H-isoquinolin-1-one] |
| 16 nM | Cn1cc(-c2cccc(-n3ccc4cc(C(C)(C)C)cc(F)c4c3=O)c2CO)cc(Nc2ccc(C(=O)N3CCOCC3)cn2)c1=O [Example I-63, 6-tert-Butyl-8-fluoro-2-(2-hydroxymethyl-3-{1-methyl-5-[5-(morpholine-4-carbonyl)-pyridin-2-ylamino]-6-oxo-1,6-dihydro-pyridin-3-yl}-phenyl)-2H-isoquinolin-1-one] |
| 11 nM | Cn1cc(-c2cccc(-n3ncc4cc(C(C)(C)C)cc(F)c4c3=O)c2CO)cc(Nc2ccc(S(C)(=O)=O)cn2)c1=O [Example I-18, 6-tert-Butyl-8-fluoro-2-{2-hydroxymethyl-3-[5-(5-methanesulfonyl-pyridin-2-ylamino)-1-methyl-6-oxo-1,6-dihydro-pyridin-3-yl]-phenyl}-2H-phthalazin-1-one] |
| 1 nM | Cn1cc(-c2cccc(-n3ncc4cc(C(C)(C)C)cc(F)c4c3=O)c2CO)cc(Nc2ccc(C(=O)N3CCOCC3)cn2)c1=O [Example I-9, 6-tert-Butyl-8-fluoro-2-(2-hydroxymethyl-3-{1-methyl-5-[5-(morpholine-4-carbonyl)-pyridin-2-ylamino]-6-oxo-1,6-dihydro-pyridin-3-yl}-phenyl)-2H-phthalazin-1-one] |
